Measurements published in patent publication US6448261B1, “Arylamino fused pyridines” (Bristol-Myers Squibb Pharma Company, priority 1996, dated 2002).

Structure (SMILES) | melting point [°C]
COC[C@H](Cc1ccccc1)n1nnc2c(Nc3ccc(C(C)C)cc3Br)nc(C)nc21 [Example 11, (S)-N-[2-bromo-4-(1-methylethyl)phenyl]-3-[1-(1-methoxymethyl)-2-phenylethyl]-5-methyl-3H-1,2,3-triazolo[4,5-d]pyrimidin-7-amine] | 67 to 69
CCC(CC)n1nnc2c(Nc3c(Br)cc(OC)cc3OC)nc(C)cc21 [Example 222, N-(2-bromo-4,6-dimethoxyphenyl)-1-(1-ethylpropyl)-6-methyl-1H-1,2,3-triazolo[4,5-c]pyridin-4-amine] | 166 to 167
CCCC(CC)n1nnc2c(Nc3ccc(C(C)C)cc3Br)nc(C)nc21 (racemic) [Example 17, (+/−)-N-[2-bromo-4-(1-methylethyl)phenyl]-3-[1-ethylbutyl]-5-methyl-3H-1,2,3-triazolo[4,5-d]pyrimidin-7-amine] | 154 to 155
CCC(CC)n1nnc2c(Nc3ccc(C(C)C)cc3Br)nc(C)nc21 [Example 19, N-[2-bromo-4-(1-methylethyl)phenyl]-3-[1-ethylpropyl]-5-methyl-3H-1,2,3-triazolo[4,5-d]pyrimidin-7-amine] | 171 to 172
CCC(COC)n1nnc2c(Nc3c(C)cc(C)cc3C)nc(C)nc21 (racemic) [Example 32, (+/−)-3-[1-(1-methoxymethyl)propyl]-5-methyl-N-(2,4,6-trimethylphenyl)-3H-1,2,3-triazolo[4,5-d]pyrimidin-7-amine] | 144.5 to 147
CCC(CC)n1nnc2c(Nc3ccc(C(C)C)cc3Br)nc(C)cc21 [Example 221, N-[2-bromo-4-(1-methylethyl)phenyl]-1-(1-ethylpropyl)-6-methyl-1H-1,2,3-triazolo[4,5-c]pyridin-4-amine] | 144 to 145
COCCn1nnc2c(Nc3ccc(C(C)C)cc3Br)nc(C)nc21 [Example 6, N-[2-bromo-4-(1-methylethyl)phenyl]-3-(2-methoxyethyl)-5-methyl-3H-1,2,3-triazolo[4,5-d]pyrimidin-7-amine] | 94 to 95
CCC(COC)n1nnc2c(Nc3ccc(Br)cc3C)nc(C)nc21 (racemic) [Example 42, (+/−)-N-(4-bromo-2-methylphenyl)-3-[1-(1-methoxymethyl)propyl]-5-methyl-3H-1,2,3-triazolo[4,5-d]pyrimidin-7-amine] | 144.5 to 146
CCCCC(CC)n1nnc2c(Nc3c(C)cc(C)cc3C)nc(C)nc21 (racemic) [Example 36, (+/−)-3-[1-(1-ethyl)pentyl]-5-methyl-N-(2,4,6-trimethylphenyl)-3H-1,2,3-triazolo[4,5-d]pyrimidine-7-amine] | 129 to 130.5
CCCC(CCC)n1nnc2c(Nc3ccc(Br)cc3C)nc(C)nc21 [Example 40, N-(2-Methyl-4-bromophenyl)-3-[1-(1-propyl)butyl]-5-methyl-3H-1,2,3-triazolo[4,5-d]pyrimidin-7-amine] | 126.5 to 128
CCCC(CCC)n1nnc2c(Nc3c(C)cc(C)cc3Br)nc(C)nc21 [Example 21, N-(2-bromo-4,6-dimethylphenyl)-5-methyl-3-[1-propylbutyl]-3H-1,2,3-triazolo[4,5-d]pyrimidin-7-amine] | 141 to 142
CCC(CC)n1nnc2c(Nc3ccc(C(C)=O)cc3Br)nc(C)nc21 [Example 26, N-(4-acetyl-2-bromophenyl)-3-[1-ethylpropyl]-5-methyl-3H-1,2,3-triazolo[4,5-d]pyrimidin-7-amine] | 153 to 154
CCCCC(CC)n1nnc2c(Nc3ccc(C(C)C)cc3Br)nc(C)cc21 (racemic) [Example 226, (+/−)-N-[2-bromo-4-(1-methylethyl)phenyl]-1-(1-ethylpentyl)-6-methyl-1H-1,2,3-triazolo[4,5-c]pyridin-4-amine] | 73 to 74
CCCCC(CC)n1nnc2c(Nc3c(Cl)cc(OC)cc3OC)nc(C)cc21 (racemic) [Example 228, (+/−)-N-(2-chloro-4,6-dimethoxyphenyl)-1-(1-ethylpentyl)-6-methyl-1H-1,2,3-triazolo[4,5-c]pyridin-4-amine] | 155 to 156
CCCC(CCC)n1nnc2c(Nc3c(C)cc(C)cc3C)nc(C)nc21 [Example 37, 5-methyl-3-[1-(1-propyl)butyl]-N-(2,4,6-trimethylphenyl)-3H-1,2,3-triazolo[4,5-d]pyrimidin-7-amine] | 143 to 144.5
COCCn1nnc2c(Nc3c(C)cc(C)cc3C)nc(C)nc21 [Example 38, 3-(2-methoxyethyl)-5-methyl-N-(2,4,6-trimethylphenyl)-3H-1,2,3-triazolo[4,5-d]pyrimidin-7-amine] | 171.5 to 173.5
CCC(COC)n1nnc2c(Nc3ccc(C(C)C)cc3Br)nc(C)nc21 (racemic) [Example 9, (+/−)-N-[2-bromo-4-(1-methylethyl)phenyl]-3-[1-(1-methoxymethyl)propyl]-5-methyl-3H-1,2,3-triazolo[4,5-d]pyrimidin-7-amine] | 115 to 116
CCCCC(CCCC)n1nnc2c(Nc3ccc(C(C)C)cc3Br)nc(C)nc21 [Example 16, N-[2-bromo-4-(1-methylethyl)phenyl]-3-[1-butylpentyl]-5-methyl-3H-1,2,3-triazolo[4,5-d]pyrimidin-7-amine] | 132 to 133
CCCn1nnc2c(Nc3ccc(C(C)C)cc3Br)nc(C)nc21 [Example 1, N-[2-bromo-4-(1-methylethyl)phenyl]-5-methyl-3-propyl-3H-1,2,3-triazolo[4,5-d]pyrimidin-7-amine] | 80 to 81
CCCCC(CC)n1nnc2c(Nc3ccc(C(C)C)cc3Br)nc(C)nc21 (racemic) [Example 13, (+/−)-N-[2-bromo-4-(1-methylethyl)phenyl]-3-[1-ethylpentyl]-5-methyl-3H-1,2,3-triazolo[4,5-d]pyrimidin-7-amine] | 137 to 138
CCC(CC)n1nnc2c(Nc3c(C)cc(C)cc3C)nc(C)nc21 [Example 34, 3-[1-(1-ethyl)propyl]-5-methyl-N-(2,4,6-trimethylphenyl)-3H-1,2,3-triazolo[4,5-d]pyrimidin-7-amine] | 160 to 162
CCC(COC)n1nnc2c(Nc3ccc(C(C)=O)cc3Br)nc(C)nc21 (racemic) [Example 27, (+/−)-N-(4-acetyl-2-bromophenyl)-3-[1-(1-methoxymethyl)propyl]-5-methyl-3H-1,2,3-triazolo[4,5-d]pyrimidin-7-amine] | 133 to 134
CCC(COC)n1nnc2c(Nc3c(Cl)cc(OC)cc3OC)nc(C)nc21 (racemic) [Example 31, (+/−)-N-(2-chloro-4,6-dimethoxyphenyl)-3-[1-(1-methoxymethyl)propyl]-5-methyl-3H-1,2,3-triazolo[4,5-d]pyrimidin-7-amine] | 149 to 150
CCCCC(CC)n1nnc2c(Nc3c(Br)cc(OC)cc3OC)nc(C)cc21 (racemic) [Example 227, (+/−)-N-(2-bromo-4,6-dimethoxyphenyl)-1-(1-ethylpentyl)-6-methyl-1H-1,2,3-triazolo[4,5-c]pyridin-4-amine] | 127 to 128
CCCC(CC)n1nnc2c(Nc3c(C)cc(C)cc3C)nc(C)nc21 (racemic) [Example 35, (+/−)-3-[1-(1-ethyl)butyl]-5-methyl-N-(2,4,6-trimethylphenyl)-3H-1,2,3-triazolo[4,5-d]pyrimidin-7-amine] | 170.5 to 172
CCCC(CCC)n1nnc2c(Nc3ccc(C(C)C)cc3Br)nc(C)nc21 [Example 15, N-[2-bromo-4-(1-methylethyl)phenyl]-3-[1-propylbutyl]-5-methyl-3H-1,2,3-triazolo[4,5-d]pyrimidin-7-amine] | 69 to 70
CCC(COC)n1nnc2c(Nc3c(Br)cc(OC)cc3OC)nc(C)nc21 (racemic) [Example 30, (+/−)-N-(2-bromo-4,6-dimethoxyphenyl)-3-[1-(1-methoxymethyl)propyl]-5-methyl-3H-1,2,3-triazolo[4,5-d]pyrimidin-7-amine] | 154 to 155
CCCC(CCC)n1nnc2c(Nc3c(Br)cc(OC)cc3OC)nc(C)cc21 [Example 224, N-(2-bromo-4,6-dimethoxyphenyl)-6-methyl-1-(1-propylbutyl)-1H-1,2,3-triazolo[4,5-c]pyridin-4-amine] | 140 to 141
CCCC(CCC)n1nnc2c(Nc3c(Cl)cc(OC)cc3OC)nc(C)cc21 [Example 225, N-(2-chloro-4,6-dimethoxyphenyl)-6-methyl-1-(1-propylbutyl)-1H-1,2,3-triazolo[4,5-c]pyridin-4-amine] | 157 to 158
